Test results reported in PMC5224920, “Assessing the mechanism and therapeutic potential of modulators of the human Mediator complex-associated protein kinases” (eLife, 2016).

Tested on: 12 single or co-culture in vitro tissue models of primary cells
Assay: Culture/co-culture cell model panel, extracellular biomarkers (DiscoveRx); for CCL2/MCP-1: reference of the scale not given here; for CD38: reference of the scale not given here; for CD40: reference of the scale not given here; for CD69: reference of the scale not given here; for CXCL8/IL-8: reference of the scale not given here; for CXCL9/MIG: reference of the scale not given here; for IL-1alpha: reference of the scale not given here; for M-CSF: reference of the scale not given here; for PBMC Cytotoxicity: reference of the scale not given here
Format: cell-based, human
[1] = /Mphg Huvec+macrophages, 1.00E0 nM
[2] = /Mphg Huvec+macrophages, 1.00E1 nM
[3] = /Mphg Huvec+macrophages, 1.00E2 nM
[4] = /Mphg Huvec+macrophages, 1.00E3 nM
[5] = /Mphg Huvec+macrophages, 1.00E4 nM

CN1c2ccc(-c3cncc(Cl)c3N3CCC4(CC3)CNC(=O)O4)cc2CS1(=O)=O [CMPD2]
Collagen III (/HDFNo, 1.00E3 nM): 0.037 | CCL2/MCP-1 (/HDFNo, 1.00E4 nM): 0.068 | CD54/ICAM-1 (/HDFNo, 1.00E4 nM): 0.057 | CD106/VCAM-1 (/HDFNo, 1.00E4 nM): 0.067 | Collagen I (/HDFNo, 1.00E4 nM): 0.071 | Collagen III (/HDFNo, 1.00E4 nM): 0.073 | CCL2/MCP-1 [1]: 0.022 | CCL3/MIP-1alpha [1]: 0.000424 | CD40 [1]: 0.00851 | CD69 [1]: 0.038 | CD106/VCAM-1 [1]: 0.069 | CXCL8/IL-8 [1]: 0.053 | IL-1alpha [1]: 0.041 | M-CSF [1]: -0.019 | SRB [1]: -0.007 | SRB-Mphg [1]: 0.018 | sIL-10 [1]: 0.074 | CCL2/MCP-1 [2]: -0.032 | CCL3/MIP-1alpha [2]: -0.016 | CD40 [2]: -0.000836 | CD69 [2]: 0.026 | CD106/VCAM-1 [2]: 0.052 | CXCL8/IL-8 [2]: -0.00092 | IL-1alpha [2]: 0.023 | M-CSF [2]: -0.033 | SRB [2]: -0.013 | SRB-Mphg [2]: 0.006 | sIL-10 [2]: 0.045 | CCL2/MCP-1 [3]: -0.044 | CCL3/MIP-1alpha [3]: -0.018 | CD40 [3]: 0.014 | CD69 [3]: -0.029 | CD106/VCAM-1 [3]: 0.050 | CXCL8/IL-8 [3]: 0.00849 | IL-1alpha [3]: 0.033 | M-CSF [3]: -0.037 | SRB [3]: -0.017 | SRB-Mphg [3]: 0.018 | sIL-10 [3]: -0.065 | CCL2/MCP-1 [4]: -0.085 | CCL3/MIP-1alpha [4]: -0.034 | CD40 [4]: 0.00225 | CD69 [4]: 0.036 | CD106/VCAM-1 [4]: 0.021 | CXCL8/IL-8 [4]: 0.012 | IL-1alpha [4]: 0.019 | M-CSF [4]: -0.046 | SRB [4]: -0.017 | SRB-Mphg [4]: 0.008 | sIL-10 [4]: -0.137 | CCL2/MCP-1 [5]: -0.107 | CCL3/MIP-1alpha [5]: -0.064 | CD40 [5]: -0.00011 | CD69 [5]: 0.061 | CD106/VCAM-1 [5]: 0.027 | CXCL8/IL-8 [5]: 0.023 | IL-1alpha [5]: 0.024 | M-CSF [5]: -0.054 | SRB [5]: -0.021 | SRB-Mphg [5]: -0.007 | sIL-10 [5]: -0.266 | CCL2/MCP-1 (/TH2, 1.00E0 nM): 0.046 | CCL26/Eotaxin-3 (/TH2, 1.00E0 nM): -0.081 | CD38 (/TH2, 1.00E0 nM): -0.015 | CD40 (/TH2, 1.00E0 nM): -0.063 | CD69 (/TH2, 1.00E0 nM): -0.031 | CD87/uPAR (/TH2, 1.00E0 nM): -0.079 | CD106/VCAM-1 (/TH2, 1.00E0 nM): 0.031 | CXCL8/IL-8 (/TH2, 1.00E0 nM): 0.026 | CXCL9/MIG (/TH2, 1.00E0 nM): 0.021 | Collagen IV (/TH2, 1.00E0 nM): -0.017 | PBMC Cytotoxicity (/TH2, 1.00E0 nM): -0.023 | SRB (/TH2, 1.00E0 nM): -0.037 | sIL-17A (/TH2, 1.00E0 nM): 0.106 | sIL-17F (/TH2, 1.00E0 nM): -0.026 | CCL2/MCP-1 (/TH2, 1.00E1 nM): -0.013 | CCL26/Eotaxin-3 (/TH2, 1.00E1 nM): -0.160 | CD38 (/TH2, 1.00E1 nM): -0.040 | CD40 (/TH2, 1.00E1 nM): -0.104 | CD69 (/TH2, 1.00E1 nM): -0.024 | CD87/uPAR (/TH2, 1.00E1 nM): -0.129 | CD106/VCAM-1 (/TH2, 1.00E1 nM): 0.033 | CXCL8/IL-8 (/TH2, 1.00E1 nM): -0.063 | CXCL9/MIG (/TH2, 1.00E1 nM): 0.013 | Collagen IV (/TH2, 1.00E1 nM): -0.009 | PBMC Cytotoxicity (/TH2, 1.00E1 nM): -0.008 | SRB (/TH2, 1.00E1 nM): -0.062 | sIL-17A (/TH2, 1.00E1 nM): 0.100 | sIL-17F (/TH2, 1.00E1 nM): -0.047 | CCL2/MCP-1 (/TH2, 1.00E2 nM): -0.044 | CCL26/Eotaxin-3 (/TH2, 1.00E2 nM): -0.160 | CD38 (/TH2, 1.00E2 nM): -0.008 | CD40 (/TH2, 1.00E2 nM): -0.119 | CD69 (/TH2, 1.00E2 nM): -0.012 | CD87/uPAR (/TH2, 1.00E2 nM): -0.098 | CD106/VCAM-1 (/TH2, 1.00E2 nM): 0.035 | CXCL8/IL-8 (/TH2, 1.00E2 nM): -0.029 | CXCL9/MIG (/TH2, 1.00E2 nM): 0.013 | Collagen IV (/TH2, 1.00E2 nM): 0.016 | PBMC Cytotoxicity (/TH2, 1.00E2 nM): -0.007 | SRB (/TH2, 1.00E2 nM): -0.066 | sIL-17A (/TH2, 1.00E2 nM): 0.165 | sIL-17F (/TH2, 1.00E2 nM): 0.173 | CCL2/MCP-1 (/TH2, 1.00E3 nM): -0.082 | CCL26/Eotaxin-3 (/TH2, 1.00E3 nM): -0.177 | CD38 (/TH2, 1.00E3 nM): -0.024 | CD40 (/TH2, 1.00E3 nM): -0.095 | CD69 (/TH2, 1.00E3 nM): -0.010 | CD87/uPAR (/TH2, 1.00E3 nM): -0.180 | CD106/VCAM-1 (/TH2, 1.00E3 nM): 0.017 | CXCL8/IL-8 (/TH2, 1.00E3 nM): -0.045 | CXCL9/MIG (/TH2, 1.00E3 nM): 0.011 | Collagen IV (/TH2, 1.00E3 nM): -0.006 | PBMC Cytotoxicity (/TH2, 1.00E3 nM): -0.011 | SRB (/TH2, 1.00E3 nM): -0.062 | sIL-17A (/TH2, 1.00E3 nM): 0.168 | sIL-17F (/TH2, 1.00E3 nM): -0.013 | CCL2/MCP-1 (/TH2, 1.00E4 nM): -0.093 | CCL26/Eotaxin-3 (/TH2, 1.00E4 nM): -0.166 | CD38 (/TH2, 1.00E4 nM): -0.035 | CD40 (/TH2, 1.00E4 nM): -0.115 | CD69 (/TH2, 1.00E4 nM): -0.043 | CD106/VCAM-1 (/TH2, 1.00E4 nM): 0.00327 | CXCL8/IL-8 (/TH2, 1.00E4 nM): -0.042 | CXCL9/MIG (/TH2, 1.00E4 nM): 0.000193 | Collagen IV (/TH2, 1.00E4 nM): -0.031 | PBMC Cytotoxicity (/TH2, 1.00E4 nM): -0.017 | SRB (/TH2, 1.00E4 nM): -0.065 | sIL-17A (/TH2, 1.00E4 nM): 0.146 | sIL-17F (/TH2, 1.00E4 nM): -0.041 | CCL26/Eotaxin-3 (BENo, 1.00E0 nM): 0.071 | CD54/ICAM-1 (BENo, 1.00E0 nM): 0.057 | CD87/uPAR (BENo, 1.00E0 nM): 0.050 | CXCL8/IL-8 (BENo, 1.00E0 nM): 0.030 | CXCL9/MIG (BENo, 1.00E0 nM): 0.080 | CXCL10/IP-10 (BENo, 1.00E0 nM): 0.112 | CXCL11/I-TAC (BENo, 1.00E0 nM): 0.105 | EGFR (BENo, 1.00E0 nM): 0.075 | HLA-DR (BENo, 1.00E0 nM): 0.134 | IL-1alpha (BENo, 1.00E0 nM): 0.066 | Keratin 8/18 (BENo, 1.00E0 nM): 0.059 | MMP-1 (BENo, 1.00E0 nM): 0.060 | MMP-9 (BENo, 1.00E0 nM): -0.001 | PAI-I (BENo, 1.00E0 nM): -0.018 | SRB (BENo, 1.00E0 nM): 0.00452 | tPA (BENo, 1.00E0 nM): 0.028 | uPA (BENo, 1.00E0 nM): 0.026 | CCL26/Eotaxin-3 (BENo, 1.00E1 nM): 0.036 | CD54/ICAM-1 (BENo, 1.00E1 nM): 0.042 | CD87/uPAR (BENo, 1.00E1 nM): 0.062 | CXCL8/IL-8 (BENo, 1.00E1 nM): 0.077 | CXCL9/MIG (BENo, 1.00E1 nM): 0.047 | CXCL10/IP-10 (BENo, 1.00E1 nM): 0.119 | CXCL11/I-TAC (BENo, 1.00E1 nM): 0.092 | EGFR (BENo, 1.00E1 nM): 0.077 | HLA-DR (BENo, 1.00E1 nM): 0.115 | IL-1alpha (BENo, 1.00E1 nM): 0.048 | Keratin 8/18 (BENo, 1.00E1 nM): 0.047 | MMP-1 (BENo, 1.00E1 nM): 0.063 | MMP-9 (BENo, 1.00E1 nM): -0.010 | PAI-I (BENo, 1.00E1 nM): -0.050 | SRB (BENo, 1.00E1 nM): 0.00136 | tPA (BENo, 1.00E1 nM): 0.026 | uPA (BENo, 1.00E1 nM): 0.026 | CCL26/Eotaxin-3 (BENo, 1.00E2 nM): 0.038 | CD54/ICAM-1 (BENo, 1.00E2 nM): -0.034 | CD87/uPAR (BENo, 1.00E2 nM): 0.110 | CXCL8/IL-8 (BENo, 1.00E2 nM): 0.017 | CXCL9/MIG (BENo, 1.00E2 nM): 0.084 | CXCL10/IP-10 (BENo, 1.00E2 nM): 0.121 | CXCL11/I-TAC (BENo, 1.00E2 nM): 0.082 | EGFR (BENo, 1.00E2 nM): 0.066 | HLA-DR (BENo, 1.00E2 nM): 0.075 | IL-1alpha (BENo, 1.00E2 nM): 0.078 | Keratin 8/18 (BENo, 1.00E2 nM): 0.033 | MMP-1 (BENo, 1.00E2 nM): 0.055 | MMP-9 (BENo, 1.00E2 nM): 0.015 | PAI-I (BENo, 1.00E2 nM): -0.035 | SRB (BENo, 1.00E2 nM): 0.002 | tPA (BENo, 1.00E2 nM): 0.038 | uPA (BENo, 1.00E2 nM): 0.032 | CCL26/Eotaxin-3 (BENo, 1.00E3 nM): 0.020 | CD54/ICAM-1 (BENo, 1.00E3 nM): -0.011 | CD87/uPAR (BENo, 1.00E3 nM): 0.063 | CXCL8/IL-8 (BENo, 1.00E3 nM): 0.028 | CXCL9/MIG (BENo, 1.00E3 nM): 0.087 | CXCL10/IP-10 (BENo, 1.00E3 nM): 0.136 | CXCL11/I-TAC (BENo, 1.00E3 nM): 0.044 | EGFR (BENo, 1.00E3 nM): 0.034 | HLA-DR (BENo, 1.00E3 nM): 0.115 | IL-1alpha (BENo, 1.00E3 nM): 0.047 | Keratin 8/18 (BENo, 1.00E3 nM): 0.017 | MMP-1 (BENo, 1.00E3 nM): 0.039 | MMP-9 (BENo, 1.00E3 nM): 0.056 | PAI-I (BENo, 1.00E3 nM): -0.090
